Data: the supplement of paper PMC10331698
± gives the standard deviation of the averaged measurements.

How the values were obtained:
Assay in all cases: level (log10 ratio to DMSO vehicle control); higher = higher biomarker level / cell amount than vehicle control
Settings in all cases: in DMSO
[1] = compound: CNS(=O)(=O)C(F)(F)C(F)(F)C(F)(F)C(F)(F)C(F)(F)C(F)(F)C(F)(F)C(F)(F)F [N-Methylperfluorooctanesulfonamide]
Method: (§1)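 BioMAP Diversity Plus panel of 12 human primary cell co-culture systems (3C, 4H, LPS, SAg, BT, BF4T, BE3C, CASM3C, HDF3CGF, KF3CT, MyoF, Mphg). Compounds were added 1 h before stimulation and left for 24 h (MyoF 48 h; BT 72 h for soluble read-outs or 6 d for IgG). Biomarkers were read by ELISA, cytotoxicity by SRB, PBMC viability and proliferation by Alamar Blue. Each well value was divided by the mean of 8 DMSO control wells on the same plate and log10 transformed; duplicate blinded samples were tested at 4 concentrations.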

Perfluorohexanoic acid = compound: O=C(O)C(F)(F)C(F)(F)C(F)(F)C(F)(F)C(F)(F)F [Perfluorohexanoic acid]
Method: as §1

[2] = compound: O=C(O)C(F)(F)OC(F)(F)C(F)(F)OC(F)(F)C(F)(F)C(F)(F)C(F)(F)F [Perfluoro-3,6-dioxadecanoic acid]
Method: as §1

[3] = compound: O=C(O)CCC(F)(F)C(F)(F)C(F)(F)C(F)(F)C(F)(F)F [2H,2H,3H,3H-Perfluorooctanoic acid]
Method: as §1

[4] = compound: O=C(O)C(F)(F)C(F)(F)C(F)(F)C(F)(F)C(F)(F)C(F)(F)C(F)(F)C(F)(F)C(F)(F)C(F)(F)C(F)(F)C(F)(F)C(F)(F)F [Perfluorotetradecanoic acid]
Method: as §1

[5] = compound: O=C(O)C(F)(F)C(F)(F)C(F)(F)C(F)(F)C(F)(F)C(F)(F)C(F)(F)C(F)(F)C(F)(F)C(F)(F)C(F)(F)C(F)(F)F [Perfluorotridecanoic acid]
Method: as §1

1-(Perfluorohexyl)octane = compound: CCCCCCCCC(F)(F)C(F)(F)C(F)(F)C(F)(F)C(F)(F)C(F)(F)F [1-(Perfluorohexyl)octane]
Method: as §1

Row | Test System | level (log10) ([1]; 6700 nM) | level (log10) ([1]; 20000 nM) | level (log10) ([1]; 60000 nM) | level (log10) (Perfluorohexanoic acid; 6700 nM) | level (log10) (Perfluorohexanoic acid; 20000 nM) | level (log10) (Perfluorohexanoic acid; 60000 nM) | level (log10) ([2]; 6700 nM) | level (log10) ([2]; 20000 nM) | level (log10) ([2]; 60000 nM) | level (log10) ([3]; 6700 nM) | level (log10) ([3]; 20000 nM) | level (log10) ([3]; 60000 nM) | level (log10) ([4]; 6700 nM) | level (log10) ([4]; 20000 nM) | level (log10) ([5]; 1500 nM) | level (log10) ([5]; 4400 nM) | level (log10) ([5]; 13000 nM) | level (log10) ([5]; 40000 nM) | level (log10) (1-(Perfluorohexyl)octane; 6700 nM) | level (log10) (1-(Perfluorohexyl)octane; 20000 nM)
1 | BE3C:CXCL11/I-TAC | -0.03 ± 0.0099 | -0.0165 ± 0.018 | -0.043 ± 0.0028 | 0.008 ± 0.014 | 0.0065 ± 0.0064 | 0.027 ± 0.0042 | 0.0945 ± 0.00071 | 0.124 ± 0.011 | 0.0095 ± 0.022 | 0.0305 ± 0.016 | 0.0535 ± 0.012 | 0.036 ± 0.014 | -0.073 ± 0.052 | -0.0135 ± 0.071 | 0.007 ± 0.0014 | -0.048 ± 0.027 | -0.089 ± 0.021 | 0 ± 0.0085 | 0.003 ± 0.016 | -0.0035 ± 0.0021
2 | 4H:CCL2/MCP-1 | 0.002 ± 0.017 | -0.064 ± 0.017 | -0.103 ± 0.027 | -0.0105 ± 0.00071 | -0.027 ± 0.0071 | 0.012 ± 0.021 | -0.0225 ± 0.0092 | -0.0425 ± 0.011 | -0.093 ± 0.14 | 0.009 ± 0.0042 | -0.008 ± 0.0057 | 0.0025 ± 0.0064 | -0.031 ± 0.0057 | 0.0115 ± 0.019 | 0.0035 ± 0.037 | -0.0025 ± 0.026 | -0.0095 ± 0.0092 | -0.033 ± 0.014 | -0.0525 ± 0.019 | -0.0495 ± 0.021
3 | BF4T:CXCL8/IL-8 | -0.045 ± 0.03 | -0.034 ± 0.028 | -0.14 ± 0.03 | -0.0055 ± 0.025 | 0.0155 ± 0.0078 | 0.0415 ± 0.042 | 0.102 ± 0.0092 | 0.163 ± 0.011 | 0.171 ± 0.019 | 0.0095 ± 0.035 | 0.033 ± 0.047 | 0.0645 ± 0.043 | 0.0325 ± 0.012 | 0.0275 ± 0.028 | 0.023 ± 0.031 | 0.005 ± 0.025 | 0.0175 ± 0.019 | 0.028 ± 0.016 | -0.0005 ± 0.00071 | 0.008 ± 0.023
4 | LPS:M-CSF | -0.038 ± 0.018 | -0.0125 ± 0.011 | -0.017 ± 0.013 | 0.002 ± 0.0099 | -0.0125 ± 0.015 | -0.0055 ± 0.025 | 0.006 ± 0.018 | -0.0115 ± 0.03 | -0.013 ± 0.0057 | -0.0035 ± 0.0035 | 0.008 ± 0.014 | 0.0035 ± 0.03 | -0.0435 ± 0.0021 | -0.0695 ± 0.037 | -0.006 ± 0.042 | -0.017 ± 0.047 | -0.0135 ± 0.019 | -0.568 ± 0.03 | -0.0065 ± 0.021 | 0.0235 ± 0.037
5 | 4H:CD87/uPAR | -0.012 ± 0.12 | -0.0565 ± 0.071 | -0.046 ± 0.044 | 0.0025 ± 0.042 | -0.002 ± 0.011 | 0.0205 ± 0.039 | -0.004 ± 0.0099 | -0.004 ± 0.0085 | -0.0175 ± 0.037 | -0.008 ± 0.04 | -0.0065 ± 0.03 | -0.062 ± 0.037 | -0.0495 ± 0.097 | -0.0345 ± 0.14 | 0.0035 ± 0.028 | -0.03 ± 0.017 | -0.0175 ± 0.015 | -0.0515 ± 0.074 | 0.027 ± 0.027 | 0.0155 ± 0.015
6 | SAg:PBMC Cytotoxicity | 0.0065 ± 0.018 | 0.034 ± 0.0042 | 0.044 ± 0.045 | -0.0155 ± 0.046 | 0.002 ± 0.0028 | 0.009 ± 0.073 | 0.03 ± 0.0085 | 0.0395 ± 0.018 | 0.0705 ± 0.00071 | 0.0125 ± 0.0078 | 0.0255 ± 0.039 | 0.0115 ± 0.039 | -0.051 ± 0.014 | -0.016 ± 0.024 | -0.0045 ± 0.021 | 0.0025 ± 0.0021 | -0.061 ± 0.042 | -0.0085 ± 0.028 | 0.023 ± 0.011 | 0.023 ± 0.017
7 | LPS:CD40 | -0.0545 ± 0.083 | -0.0265 ± 0.023 | -0.0375 ± 0.0078 | 0.041 ± 0.096 | 0.038 ± 0.13 | 0.0215 ± 0.14 | -0.0125 ± 0.0078 | -0.0265 ± 0.023 | -0.14 ± 0.055 | -0.005 ± 0.047 | -0.014 ± 0.02 | -0.0635 ± 0.026 | 0.0005 ± 0.12 | 0 ± 0.11 | 0.015 ± 0.092 | -0.0215 ± 0.17 | -0.032 ± 0.11 | -0.03 ± 0.092 | -0.0355 ± 0.079 | -0.0205 ± 0.049
